{"source": "PubChem BioAssay (NCI)", "test_in_all_cases": "NCI tumour cell line growth inhibition, 48 h", "key": {"[1]": {"system": "HCC-2998 colon"}, "[2]": {"system": "MOLT-4 leukemia"}, "[3]": {"system": "KM12 colon"}, "[4]": {"system": "IGROV1 ovarian"}, "[5]": {"system": "BT-549 breast"}, "[6]": {"system": "EKVX NSCLC"}, "[7]": {"system": "SK-OV-3 ovarian"}, "[8]": {"system": "A498 renal"}, "[9]": {"system": "CAKI-1 renal"}, "[10]": {"system": "OVCAR-4 ovarian"}, "[11]": {"system": "SF-539 CNS"}, "[12]": {"system": "NCI-H460 lung"}, "[13]": {"system": "HCT-15 colon"}, "[14]": {"system": "RXF 393 renal"}, "[15]": {"system": "SK-MEL-28 melanoma"}, "[16]": {"system": "A549 NSCLC"}, "[17]": {"system": "UACC-62 melanoma"}, "[18]": {"system": "SF-295 CNS"}, "[19]": {"system": "M14 melanoma"}, "[20]": {"system": "DU-145 prostate"}, "[21]": {"system": "SR leukemia"}, "[22]": {"system": "T-47D breast"}, "[23]": {"system": "SN12C renal"}, "[24]": {"system": "MDA-N"}, "[25]": {"system": "COLO 205 colon"}, "[26]": {"system": "UO-31 renal"}, "[27]": {"system": "CCRF-CEM leukemia"}, "[28]": {"system": "PC-3 prostate"}, "[29]": {"system": "TK-10 renal"}, "[30]": {"system": "LOX IMVI melanoma"}, "[31]": {"system": "SW-620 colon"}, "[32]": {"system": "HL-60(TB) leukemia"}, "[33]": {"system": "MALME-3M melanoma"}, "[34]": {"system": "ACHN renal"}, "[35]": {"system": "OVCAR-5 ovarian"}, "[36]": {"system": "OVCAR-8 ovarian"}, "[37]": {"system": "SF-268 CNS"}, "[38]": {"system": "HT29 colon"}, "[39]": {"system": "K-562 leukemia"}, "[40]": {"system": "SK-MEL-5 melanoma"}, "[41]": {"system": "SNB-19 CNS"}, "[42]": {"system": "HOP-62 NSCLC"}, "[43]": {"system": "MCF7 breast"}, "[44]": {"system": "NCI-H226 lung"}, "[45]": {"system": "NCI/ADR-RES ovarian"}, "[46]": {"system": "OVCAR-3 ovarian"}, "[47]": {"system": "NCI-H522 lung"}, "[48]": {"system": "MDA-MB-231 breast"}, "[49]": {"system": "SK-MEL-2 melanoma"}, "[50]": {"system": "NCI-H23 lung"}, "[51]": {"system": "SNB-75 CNS"}, "[52]": {"system": "HCT-116 colon"}, "[53]": {"system": "786-0 renal"}, "[54]": {"system": "HOP-92 NSCLC"}, "[55]": {"system": "MDA-MB-435"}, "[56]": {"system": "UACC-257 melanoma"}, "[57]": {"system": "U251 CNS"}}, "note": "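Values below derive from 48-hour exposures of cells grown in 96-well plates, with endpoints linearly interpolated between the two concentrations bracketing the appropriate inhibition level. TGI is the concentration that stops growth completely.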"}
{"smiles": "O=C1c2cccnc2-c2nccc3c2c1nc1ccc(Br)cc13", "values": [{"measurement": "TGI", "setting": "[1]", "value": 308, "unit": "nM"}, {"measurement": "TGI", "setting": "[2]", "value": 569, "unit": "nM"}, {"measurement": "TGI", "setting": "[3]", "value": 207, "unit": "nM"}, {"measurement": "TGI", "setting": "[4]", "value": 143, "unit": "nM"}, {"measurement": "TGI", "setting": "[5]", "value": 176, "unit": "nM"}, {"measurement": "TGI", "setting": "[6]", "value": 311, "unit": "nM"}, {"measurement": "TGI", "setting": "[7]", "value": 389, "unit": "nM"}, {"measurement": "TGI", "setting": "[8]", "value": 223, "unit": "nM"}, {"measurement": "TGI", "setting": "[9]", "value": 156, "unit": "nM"}, {"measurement": "TGI", "setting": "[10]", "value": 324, "unit": "nM"}, {"measurement": "TGI", "setting": "[11]", "value": 141, "unit": "nM"}, {"measurement": "TGI", "setting": "[12]", "value": 125, "unit": "nM"}, {"measurement": "TGI", "setting": "[13]", "value": 116, "unit": "nM"}, {"measurement": "TGI", "setting": "[14]", "value": 69.1, "unit": "nM"}, {"measurement": "TGI", "setting": "[15]", "value": 169, "unit": "nM"}, {"measurement": "TGI", "setting": "[16]", "value": 387, "unit": "nM"}, {"measurement": "TGI", "setting": "[17]", "value": 124, "unit": "nM"}, {"measurement": "TGI", "setting": "[18]", "value": 114, "unit": "nM"}, {"measurement": "TGI", "setting": "[19]", "value": 77.3, "unit": "nM"}, {"measurement": "TGI", "setting": "[20]", "value": 57.7, "unit": "nM"}, {"measurement": "TGI", "setting": "[21]", "value": 37.2, "unit": "nM"}, {"measurement": "TGI", "setting": "[22]", "value": 552, "unit": "nM"}, {"measurement": "TGI", "setting": "[23]", "value": 205, "unit": "nM"}, {"measurement": "TGI", "setting": "[24]", "value": 249, "unit": "nM"}, {"measurement": "TGI", "setting": "[25]", "value": 1600, "unit": "nM"}, {"measurement": "TGI", "setting": "[26]", "value": 202, "unit": "nM"}, {"measurement": "TGI", "setting": "[27]", "value": 133, "unit": "nM"}, {"measurement": "TGI", "setting": "[28]", "value": 234, "unit": "nM"}, {"measurement": "TGI", "setting": "[29]", "value": 749, "unit": "nM"}, {"measurement": "TGI", "setting": "[30]", "value": 80.6, "unit": "nM"}, {"measurement": "TGI", "setting": "[31]", "value": 170, "unit": "nM"}, {"measurement": "TGI", "setting": "[32]", "value": 37.7, "unit": "nM"}, {"measurement": "TGI", "setting": "[33]", "value": 338, "unit": "nM"}, {"measurement": "TGI", "setting": "[34]", "value": 95.7, "unit": "nM"}, {"measurement": "TGI", "setting": "[35]", "value": 324, "unit": "nM"}, {"measurement": "TGI", "setting": "[36]", "value": 223, "unit": "nM"}, {"measurement": "TGI", "setting": "[37]", "value": 143, "unit": "nM"}, {"measurement": "TGI", "setting": "[38]", "value": 723, "unit": "nM"}, {"measurement": "TGI", "setting": "[39]", "value": 331, "unit": "nM"}, {"measurement": "TGI", "setting": "[40]", "value": 88.7, "unit": "nM"}, {"measurement": "TGI", "setting": "[41]", "value": 295, "unit": "nM"}, {"measurement": "TGI", "setting": "[42]", "value": 194, "unit": "nM"}, {"measurement": "TGI", "setting": "[43]", "value": "< 30", "unit": "nM"}, {"measurement": "TGI", "setting": "[44]", "value": 63.9, "unit": "nM"}, {"measurement": "TGI", "setting": "[45]", "value": 176, "unit": "nM"}, {"measurement": "TGI", "setting": "[46]", "value": 58.6, "unit": "nM"}, {"measurement": "TGI", "setting": "[47]", "value": 128, "unit": "nM"}, {"measurement": "TGI", "setting": "[48]", "value": 211, "unit": "nM"}, {"measurement": "TGI", "setting": "[49]", "value": 306, "unit": "nM"}, {"measurement": "TGI", "setting": "[50]", "value": 120, "unit": "nM"}, {"measurement": "TGI", "setting": "[51]", "value": 595, "unit": "nM"}, {"measurement": "TGI", "setting": "[52]", "value": 32.4, "unit": "nM"}, {"measurement": "TGI", "setting": "[53]", "value": 98.6, "unit": "nM"}, {"measurement": "TGI", "setting": "[54]", "value": 794, "unit": "nM"}, {"measurement": "TGI", "setting": "[55]", "value": 257, "unit": "nM"}, {"measurement": "TGI", "setting": "[56]", "value": 169, "unit": "nM"}, {"measurement": "TGI", "setting": "[57]", "value": 147, "unit": "nM"}]}
